This passage reports IC50 results from US9765018B2, “IDO inhibitors” (BRISTOL-MYERS SQUIBB COMPANY, priority 2013, dated 2017).

For orientation: IC50 means the concentration that inhibits the measured activity by half.

The target of experiment [1] is T1, IDO (Homo sapiens (Human), UniProt P14902). The experiment in a line: Kynurenine assay in IFN-γ-stimulated Hela cells. Conditions: 20 h, read-out: Hela Kyurenine (IC50). Format: cell-based. The method in brief:
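Kynurenine in supernatant is read at 490 nm after Ehrlich reagent (10 min RT), following TCA stop and 30 min at 50° C hydrolysis. Before that, Hela cells in phenol red-free RPMI/10% FBS were co-treated 20 h at 37° C with 100 ng/mL IFN-γ and compound (30 μM top, 3-fold series to 1.5 nM).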

Experiment [2] deals with T1, IDO. In words: LLE_IDO_ABS_DR (IDO assay, method not described).

T1 sequence (P14902 whole entry): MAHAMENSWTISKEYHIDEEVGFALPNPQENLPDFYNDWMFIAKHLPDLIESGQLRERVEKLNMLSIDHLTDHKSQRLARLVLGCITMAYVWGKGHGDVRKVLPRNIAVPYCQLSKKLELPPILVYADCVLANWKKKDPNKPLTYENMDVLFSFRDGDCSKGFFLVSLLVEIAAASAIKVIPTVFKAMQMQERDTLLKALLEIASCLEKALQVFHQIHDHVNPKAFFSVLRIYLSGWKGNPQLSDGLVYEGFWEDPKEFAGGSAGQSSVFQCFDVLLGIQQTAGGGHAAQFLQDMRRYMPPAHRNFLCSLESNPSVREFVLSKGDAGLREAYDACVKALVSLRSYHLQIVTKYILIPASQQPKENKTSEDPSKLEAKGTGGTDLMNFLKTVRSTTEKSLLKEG

As to `COc1ccc(-c2ccc(O[C@@H]3CCCC[C@H]3C)c(NC(=O)Nc3ccccc3Cl)c2)cc1C(=O)O` (relative stereo) [Example 132, 3′-(3-(2-chlorophenyl)ureido)-4-methoxy-4′-((trans)-2-methylcyclohexyloxy)biphenyl-3-carboxylic acid], the results for the IC50 in experiment [1] and in experiment [2] were 990 nM and 1460 nM, respectively.
For the compound `COc1ccc(-c2ccc(O[C@@H]3CCCC[C@H]3C)c(NC(=O)Nc3cccc(C)c3)c2)cc1C(=O)O` (relative stereo) [Example 138, 4-methoxy-4′-((trans)-2-methylcyclohexyloxy)-3′-(3-m-tolylureido)biphenyl-3-carboxylic acid], the 50% inhibitory concentration (IC50) in experiment [1] was 390 nM; in experiment [2], 2340 nM.
As to `COc1ccc(-c2cnc(Oc3cccc4c3CCCC4)c(NC(=O)Nc3ccccc3Cl)c2C)cc1C(=O)O` [Example 3, 5-(5-(3-(2-Chlorophenyl)ureido)-4-methyl-6-(5,6,7,8-tetrahydronaphthalen-1-yloxy)pyridin-3-yl)-2-methoxybenzoic acid], the figures for the IC50 in experiment [1] and in experiment [2] were 3380 nM and 4810 nM, respectively.
For `COc1ccc(-c2ccc(Oc3ccccc3C(C)(C)C)c(NC(=O)Nc3ccc(C(F)(F)F)cc3)c2)cc1C(=O)O` [Example 43, 4′-(2-tert-butylphenoxy)-4-methoxy-3′-(3-(4-(trifluoromethyl)phenyl)ureido)biphenyl-3-carboxylic acid], the concentration for half-maximal inhibition (IC50) was 440 nM in experiment [1] and 10000 nM in experiment [2].
In the case of `COc1ccc(-c2ccc(Oc3ccccc3C(C)(C)C)c(NC(=O)Nc3cccc(C)c3)c2)cc1C(=O)O` [Example 45, 4′-(2-tert-butylphenoxy)-4-methoxy-3′-(3-m-tolylureido)biphenyl-3-carboxylic acid], the concentration for half-maximal inhibition (IC50) in experiment [1] was found to be 150 nM; in experiment [2], 390 nM.
With `COc1ccc(-c2ccc(Oc3ccccc3Cl)c(NC(=O)Nc3ccccc3Cl)c2)cc1C(=O)O` [Example 49, 4′-(2-chlorophenoxy)-3′-(3-(2-chlorophenyl)ureido)-4-methoxybiphenyl-3-carboxylic acid], the IC50 in experiment [1] came out at 590 nM; in experiment [2], 2630 nM.
For the compound `COc1ccc(-c2ccc(Oc3c(C)cccc3C(C)(C)C)c(NC(=O)Nc3ccccc3Cl)c2)cc1C(=O)O` [Example 54, 4′-(2-tert-butyl-6-methylphenoxy)-3′-(3-(2-chlorophenyl)ureido)-4-methoxybiphenyl-3-carboxylic acid], the IC50 was 510 nM in experiment [1] and 2540 nM in experiment [2].
As for `CCc1ccccc1Oc1ccc(-c2ccc(OC)c(C(=O)O)c2)cc1NC(=O)Nc1cccc(C)c1` [Example 57, 4′-(2-ethylphenoxy)-4-methoxy-3′-(3-m-tolylureido)biphenyl-3-carboxylic acid], the half-inhibitory concentration (IC50) is 130 nM in experiment [1] and 390 nM in experiment [2].
For `CCc1ccccc1Oc1ccc(-c2ccc(OC)c(C(=O)O)c2)cc1NC(=O)Nc1cccc(Cl)c1` [Example 58, 3′-(3-(3-chlorophenyl)ureido)-4′-(2-ethylphenoxy)-4-methoxybiphenyl-3-carboxylic acid] the same measures were 240 nM and 770 nM.
As for `COc1ccc(-c2ccc(Oc3c(C)cccc3C(C)(C)C)c(NC(=O)Nc3cccc(C)c3)c2)cc1C(=O)O` [Example 60, 4′-(2-tert-butyl-6-methylphenoxy)-4-methoxy-3′-(3-m-tolylureido)biphenyl-3-carboxylic acid], the figures for the IC50 in experiment [1] and in experiment [2] were 310 nM and 1150 nM, respectively.
For `COc1ccc(-c2ccc(Oc3ccccc3C(C)C)c(NC(=O)Nc3ccccc3Cl)c2)cc1C(=O)O` [Example 62, 3′-(3-(2-chlorophenyl)ureido)-4′-(2-isopropylphenoxy)-4-methoxybiphenyl-3-carboxylic acid] the same measures were 140 nM and 530 nM.
As for `COc1ccc(-c2ccc(Oc3ccccc3C(C)C)c(NC(=O)Nc3ccccc3C)c2)cc1C(=O)O` [Example 64, 4′-(2-isopropylphenoxy)-4-methoxy-3′-(3-o-tolylureido)biphenyl-3-carboxylic acid], the half-maximal inhibitory concentration (IC50) in experiment [1] was 180 nM; in experiment [2], 640 nM.
With `COc1ccc(-c2ccc(Oc3ccccc3C(C)C)c(NC(=O)Nc3cccc(C)c3)c2)cc1C(=O)O` [Example 65, 4′-(2-isopropylphenoxy)-4-methoxy-3′-(3-m-tolylureido)biphenyl-3-carboxylic acid], the half-maximal inhibitory concentration (IC50) in experiment [1] was found to be 200 nM; in experiment [2] it was 630 nM.
In the case of `COc1ccc(-c2ccc(Oc3ccccc3C(C)(C)C)c(NC(=O)Nc3ccc(OC(F)(F)F)cc3)c2)cc1C(=O)O` [Example 66, 4′-(2-tert-butylphenoxy)-4-methoxy-3′-(3-(4-(trifluoromethoxy)phenyl)ureido)biphenyl-3-carboxylic acid], the concentration for half-maximal inhibition (IC50) in experiment [1] is 820 nM; in experiment [2], 1590 nM.
On to `CCCc1ccccc1Oc1ccc(-c2ccc(OC)c(C(=O)O)c2)cc1NC(=O)Nc1ccccc1Cl` [Example 74, 3′-(3-(2-chlorophenyl)ureido)-4-methoxy-4′-(2-propylphenoxy)biphenyl-3-carboxylic acid], for which the 50% inhibitory concentration (IC50) in experiment [1] stood at 400 nM; in experiment [2], 520 nM.
In the case of `CCCc1ccccc1Oc1ccc(-c2ccc(OC)c(C(=O)O)c2)cc1NC(=O)Nc1ccccc1C` [Example 75, 4-methoxy-4′-(2-propylphenoxy)-3′-(3-o-tolylureido)biphenyl-3-carboxylic acid], the IC50 in experiment [1] was 370 nM; in experiment [2] it was 550 nM.
As for `CCCc1ccccc1Oc1ccc(-c2ccc(OC)c(C(=O)O)c2)cc1NC(=O)Nc1cccc(C)c1` [Example 76, 4-methoxy-4′-(2-propylphenoxy)-3′-(3-m-tolylureido)biphenyl-3-carboxylic acid], the half-maximal inhibitory concentration (IC50) came to 600 nM in experiment [1] and 2040 nM in experiment [2].
For `COc1ccc(-c2ccc(Oc3ccccc3C(C)(C)C)c(NC(=O)Nc3cccc(Cl)c3Cl)c2)cc1C(=O)O` [Example 81, 4′-(2-(tert-butyl)phenoxy)-3′-(3-(2,3-dichlorophenyl)ureido)-4-methoxy-[1,1′-biphenyl]-3-carboxylic acid], the results for the IC50 in experiment [1] and in experiment [2] were 130 nM and 320 nM, respectively.
As for `COc1ccccc1NC(=O)Nc1cc(-c2ccc(OC)c(C(=O)O)c2)ccc1Oc1ccccc1C(C)(C)C` [Example 83, 4′-(2-(tert-butyl)phenoxy)-4-methoxy-3′-(3-(2-methoxyphenyl)ureido)-[1,1′-biphenyl]-3-carboxylic acid], the results for the IC50 in experiment [1] and in experiment [2] were 210 nM and 1190 nM, respectively.
On to `COc1ccc(-c2ccc(Oc3ccccc3C(C)(C)C)c(NC(=O)Nc3ccc(C)cc3C)c2)cc1C(=O)O` [Example 94, 4′-(2-(tert-butyl)phenoxy)-3′-(3-(2,4-dimethylphenyl)ureido)-4-methoxy-[1,1′-biphenyl]-3-carboxylic acid], for which the IC50 in experiment [1] is 170 nM; in experiment [2], 3060 nM.
`COc1ccc(-c2ccc(Oc3cccc(C(C)(C)C)c3)c(NC(=O)Nc3ccccc3Cl)c2)cc1C(=O)O` [Example 110, 4′-(3-tert-butylphenoxy)-3′-(3-(2-chlorophenyl)ureido)-4-methoxybiphenyl-3-carboxylic acid]: the results for the IC50 in experiment [1] and in experiment [2] were 130 nM and 2050 nM, respectively.
Turning to `COc1ccc(-c2ccc(Oc3cccc(C(C)(C)C)c3)c(NC(=O)Nc3ccccc3C)c2)cc1C(=O)O` [Example 111, 4′-(3-tert-butylphenoxy)-4-methoxy-3′-(3-o-tolylureido)biphenyl-3-carboxylic acid], the IC50 in experiment [1] was 180 nM; in experiment [2], 430 nM.
The like results for `COc1ccc(-c2ccc(Oc3cccc(C(C)(C)C)c3)c(NC(=O)Nc3cccc(C)c3)c2)cc1C(=O)O` [Example 112, 4′-(3-tert-butylphenoxy)-4-methoxy-3′-(3-m-tolylureido)biphenyl-3-carboxylic acid] were, in that order, 370 nM and 1050 nM.
For `CCCNC(=O)Nc1cc(-c2ccc(OC)c(C(=O)O)c2)ccc1Oc1cccc2c1CCCC2` [Example 118, 4-methoxy-3′-(3-propylureido)-4′-(5,6,7,8-tetrahydronaphthalen-1-yloxy)biphenyl-3-carboxylic acid] the same measures were 920 nM and 1060 nM.
For `COc1ccc(-c2ccc(Oc3cccc(C)c3C)c(NC(=O)Nc3ccccc3C)c2)cc1C(=O)O` [Example 121, 4′-(2,3-dimethylphenoxy)-4-methoxy-3′-(3-o-tolylureido)biphenyl-3-carboxylic acid], the concentration for half-maximal inhibition (IC50) is 110 nM in experiment [1] and 390 nM in experiment [2].
`COc1ccc(-c2ccc(Oc3ccccc3C3CC3)c(NC(=O)Nc3ccccc3Cl)c2)cc1C(=O)O` [Example 124, 3′-(3-(2-chlorophenyl)ureido)-4′-(2-cyclopropylphenoxy)-4-methoxybiphenyl-3-carboxylic acid]: the IC50 in experiment [1] was 140 nM; in experiment [2], 820 nM.
As for `Cc1ccc(NC(=O)Nc2cc(-c3ccccc3-c3nnn[nH]3)cc(CC3CC3)c2Oc2ccccc2)cc1` [Example 322], 460 nM corresponded to half-maximal inhibition in experiment [2] (IC50).
Take `Cc1ccc(NC(=O)Nc2cc(-c3ccccc3-c3nnn[nH]3)cc(CC3CC3)c2OCC2CC2)cc1` [Example 324]: in experiment [2], half-maximal inhibition (IC50) was put at 1070 nM.
In the case of `Cc1cccc(NC(=O)Nc2cc(-c3ccccc3-c3nnn[nH]3)cc(CC3CC3)c2OCC2CC2)c1` [Example 325], in experiment [2], inhibition was half-maximal at 2970 nM (IC50).
`Cc1cccc(NC(=O)Nc2cc(-c3ccccc3-c3nnn[nH]3)cc(CC3CC3)c2OC2CCOCC2)c1` [Example 326] registered a half-inhibitory concentration (IC50) in experiment [2] of 130 nM.
In turn, `O=C(Nc1ccc(Cl)cc1)Nc1cc(-c2ccccc2-c2nnn[nH]2)cc(CC2CC2)c1OCC1CC1` [Example 327] showed an IC50 in experiment [2] of 310 nM.
`O=C(Nc1ccc(C2CC2)cc1)Nc1cc(-c2ccccc2-c2nnn[nH]2)cc(CC2CC2)c1OC1CCOCC1` [Example 328]: in experiment [2], the midpoint of inhibition, the IC50, lay at 130 nM.
As to `O=C(Nc1ccc(F)cc1F)Nc1cc(-c2ccccc2-c2nnn[nH]2)cc(CC2CC2)c1Oc1ccccc1` [Example 329], in experiment [2], half-maximal inhibition (IC50) was put at 1660 nM.
